Laboratory results reported in paper PMC6944674, “Comparison of the Hepatotoxic Potential of Two Treatments for Autosomal-Dominant Polycystic Kidney DiseaseUsing Quantitative Systems Toxicology Modeling” (Pharmaceutical Research, 2020).
pIC50, pKi: −log10 of the molar value. Several values for one entry are separate records, joined by “and”; a condition that tells them apart may be missing. Equal values may be shown once. Read-outs that look alike come from different tables or passages of the source.

Legend:
human BSEP [1] = target: T1, human BSEP (Homo sapiens, UniProt O95342); assay: BSEP vesicular transport inhibition assay (taurocholate, HEK-293 cell membrane vesicles); format: biochemical
T1 construct: host or cells: HEK-293 cell membrane vesicles
T1 sequence (O95342 whole entry): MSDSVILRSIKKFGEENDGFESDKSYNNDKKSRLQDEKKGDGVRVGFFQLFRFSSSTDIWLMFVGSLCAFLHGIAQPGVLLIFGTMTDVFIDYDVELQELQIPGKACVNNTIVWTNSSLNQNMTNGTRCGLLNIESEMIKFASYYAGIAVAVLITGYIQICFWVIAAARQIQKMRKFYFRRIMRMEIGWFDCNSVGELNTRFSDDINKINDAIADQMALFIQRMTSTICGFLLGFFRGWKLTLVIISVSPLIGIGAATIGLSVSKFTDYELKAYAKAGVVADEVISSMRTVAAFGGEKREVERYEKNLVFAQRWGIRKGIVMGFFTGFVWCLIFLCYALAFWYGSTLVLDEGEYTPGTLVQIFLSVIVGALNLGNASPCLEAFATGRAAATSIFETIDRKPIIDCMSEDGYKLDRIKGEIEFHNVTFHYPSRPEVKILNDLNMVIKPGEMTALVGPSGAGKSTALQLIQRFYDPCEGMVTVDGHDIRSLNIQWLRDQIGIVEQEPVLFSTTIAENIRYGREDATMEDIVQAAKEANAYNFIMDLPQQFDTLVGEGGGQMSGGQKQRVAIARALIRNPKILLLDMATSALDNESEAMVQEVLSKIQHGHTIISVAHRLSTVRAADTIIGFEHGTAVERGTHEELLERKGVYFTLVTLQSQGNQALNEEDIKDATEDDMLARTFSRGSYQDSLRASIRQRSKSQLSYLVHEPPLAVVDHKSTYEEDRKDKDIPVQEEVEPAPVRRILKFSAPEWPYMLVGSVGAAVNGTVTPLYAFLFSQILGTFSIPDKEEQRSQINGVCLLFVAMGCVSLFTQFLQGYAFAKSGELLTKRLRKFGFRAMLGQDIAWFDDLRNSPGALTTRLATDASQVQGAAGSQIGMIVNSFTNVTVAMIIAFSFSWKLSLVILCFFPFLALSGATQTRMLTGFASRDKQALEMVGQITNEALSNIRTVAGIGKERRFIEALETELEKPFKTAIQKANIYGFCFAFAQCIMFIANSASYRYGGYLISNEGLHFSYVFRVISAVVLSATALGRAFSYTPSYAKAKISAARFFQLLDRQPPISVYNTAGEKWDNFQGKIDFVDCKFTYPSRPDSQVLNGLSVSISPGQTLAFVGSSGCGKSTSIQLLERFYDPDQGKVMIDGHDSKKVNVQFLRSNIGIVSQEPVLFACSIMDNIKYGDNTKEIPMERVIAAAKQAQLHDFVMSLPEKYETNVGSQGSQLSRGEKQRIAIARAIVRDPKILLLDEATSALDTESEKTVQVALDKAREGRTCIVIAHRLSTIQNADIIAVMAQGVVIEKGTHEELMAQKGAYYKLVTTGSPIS
Protocol: (§1) The functional impact of lixivaptan, its three metabolites and tolvaptan on the human ABC (efflux) transporters BSEP and MRP3 and MRP4 was assessed for this project using in vitro vesicular transport inhibition assays. The inhibition of the human SLC (uptake) transporter NTCP was assessed using CHO cells stably expressing human NTCP. The concentration ranges used for the five test articles was determined based on the solubility of each compound in the assay solution. All transporter inhibition assays were conducted in triplicate by Solvo Biotechnology (Szeged, Hungary).
For the simulation of bile acid transporter inhibition by lixivaptan in DILIsym, parameter values were selected for BSEP canalicular transport, basolateral transport (encompassing both MRP3 and MRP4), and NTCP transport. The parameter values for each include the inhibition constant, defined as the IC50 or Ki value, and the inhibition type, defined as competitive, non-competitive, or mixed inhibition.
In vesicular transport inhibition assays, lixivaptan and its metabolites each inhibited BSEP-mediated probe substrate accumulation (Figure B1) and MRP4-mediated probe substrate accumulation (Figure B2) dose-dependently.
Figure B1. […] See Appendix A for more details.

human NTCP = target: T2, human NTCP (Homo sapiens, UniProt Q14973); assay: NTCP inhibition in CHO cells stably expressing human NTCP (taurocholate); format: cell-based; settings: CHO cells
T2 sequence (Q14973 1-349): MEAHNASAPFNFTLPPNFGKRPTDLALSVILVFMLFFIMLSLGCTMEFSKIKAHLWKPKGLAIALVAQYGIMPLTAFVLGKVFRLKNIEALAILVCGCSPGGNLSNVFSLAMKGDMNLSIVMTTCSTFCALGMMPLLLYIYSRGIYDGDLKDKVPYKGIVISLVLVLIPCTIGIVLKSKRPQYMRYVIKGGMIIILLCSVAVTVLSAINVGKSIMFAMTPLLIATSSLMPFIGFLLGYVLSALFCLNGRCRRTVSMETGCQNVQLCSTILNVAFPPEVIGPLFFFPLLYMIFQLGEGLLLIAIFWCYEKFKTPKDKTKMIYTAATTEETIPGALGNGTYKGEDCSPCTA
Protocol: as §1
Figure B4. […] See Appendix A for more details.

human MRP3 = target: T3, human MRP3 (Homo sapiens, UniProt O15438); assay: MRP3 vesicular transport inhibition assay (E217βG, HEK-293 cell membrane vesicles); format: biochemical
T3 construct: host or cells: HEK-293 cell membrane vesicles
T3 sequence (O15438 whole entry): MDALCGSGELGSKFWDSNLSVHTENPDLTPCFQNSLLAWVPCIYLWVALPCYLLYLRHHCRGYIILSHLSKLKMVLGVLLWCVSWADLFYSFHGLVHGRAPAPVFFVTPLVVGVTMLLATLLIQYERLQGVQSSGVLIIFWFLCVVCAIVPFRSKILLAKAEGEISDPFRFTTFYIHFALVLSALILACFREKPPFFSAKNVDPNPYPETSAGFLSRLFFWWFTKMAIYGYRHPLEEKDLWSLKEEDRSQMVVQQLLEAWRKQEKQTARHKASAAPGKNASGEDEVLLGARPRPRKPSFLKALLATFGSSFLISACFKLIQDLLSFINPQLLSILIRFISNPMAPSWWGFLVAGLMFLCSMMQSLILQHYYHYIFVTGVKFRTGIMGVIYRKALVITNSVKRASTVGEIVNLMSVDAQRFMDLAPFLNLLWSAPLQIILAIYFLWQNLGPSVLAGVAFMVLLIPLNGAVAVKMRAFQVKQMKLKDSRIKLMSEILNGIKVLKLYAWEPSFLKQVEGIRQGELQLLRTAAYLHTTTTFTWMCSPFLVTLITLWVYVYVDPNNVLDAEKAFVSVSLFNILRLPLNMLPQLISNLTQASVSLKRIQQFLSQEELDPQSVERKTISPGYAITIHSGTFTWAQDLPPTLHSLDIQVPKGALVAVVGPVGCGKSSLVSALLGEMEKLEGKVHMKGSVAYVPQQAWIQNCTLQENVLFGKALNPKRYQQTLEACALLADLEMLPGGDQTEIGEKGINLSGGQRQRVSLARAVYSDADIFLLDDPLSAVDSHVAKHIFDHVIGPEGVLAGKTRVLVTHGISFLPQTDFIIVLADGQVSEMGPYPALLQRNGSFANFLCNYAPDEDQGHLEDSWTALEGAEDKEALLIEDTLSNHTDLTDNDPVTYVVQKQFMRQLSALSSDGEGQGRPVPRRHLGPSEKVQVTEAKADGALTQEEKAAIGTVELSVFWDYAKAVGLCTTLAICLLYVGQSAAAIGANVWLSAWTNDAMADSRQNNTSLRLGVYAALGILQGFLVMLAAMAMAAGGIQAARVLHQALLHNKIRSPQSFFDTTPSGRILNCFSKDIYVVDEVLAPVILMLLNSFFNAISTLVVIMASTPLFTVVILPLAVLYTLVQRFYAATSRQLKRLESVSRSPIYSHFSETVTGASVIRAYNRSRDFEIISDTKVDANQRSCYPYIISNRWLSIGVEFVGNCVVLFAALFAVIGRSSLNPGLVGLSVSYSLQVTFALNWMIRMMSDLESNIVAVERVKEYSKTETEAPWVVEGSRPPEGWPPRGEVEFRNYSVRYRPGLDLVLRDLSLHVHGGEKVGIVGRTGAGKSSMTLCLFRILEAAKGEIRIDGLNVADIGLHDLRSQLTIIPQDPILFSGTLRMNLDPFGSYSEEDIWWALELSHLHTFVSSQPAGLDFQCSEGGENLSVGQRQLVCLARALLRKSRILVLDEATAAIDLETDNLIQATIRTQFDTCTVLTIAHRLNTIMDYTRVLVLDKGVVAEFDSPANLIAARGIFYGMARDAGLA
Protocol: as §1
Figure B3. […] See Appendix A for more details.

HepG2 cells [2] = assay: Seahorse XFe96 cellular respiration assay (oxygen consumption rate); format: cell-based; settings: 24 hour incubation
Protocol: To assess the potential effect of the five test articles on mitochondrial function, cellular respiration assays using a Seahorse XFe96 Flux Analyzer were conducted by Cyprotex (Macclesfield, UK) and overseen by the authors. HepG2 cells were incubated with each test article for 1 or 24 hours and tested for an effect on cellular respiration by measuring the oxygen consumption rate (OCR). Each study was conducted in triplicate. Importantly, the 1 hour culture was conducted in the absence of serum (i.e. no serum protein binding) as is standard for the Seahorse Analyzer assay conditions.

[3] = tested on: mitochondrial electron transport chain; assay: ETC inhibition parameter from MITOsym simulation of OCR data, translated to DILIsym; settings: calculated from 24 h HepG2 OCR data and measured intracellular concentrations; lower = higher risk
From the text: The parameters calculated in this manner were then translated to DILIsym parameters using a conversion factor based on the relative activity of rotenone in the in vitro vs. in vivo environment (7).

[4] = Intracellular concentration by LC/MS/MS in HepG2 cultures parallel to Seahorse assay; format: in vitro ADME; settings: human, HepG2 cells, Seahorse medium
Protocol: (§2) The concentration of test compound at the site of action (i.e. hepatocytes) has been identified as highly influential in the selection of parameter values (7). To assess intracellular concentrations of the five test articles, identical HepG2 cultures were established in parallel and cell lysate concentrations of the test articles were measured by LC/MS/MS analysis. Intracellular concentrations of the test articles were calculated by correcting for cell lysate volume (100 µL) and the volume of HepG2 cells in each well, which was calculated by multiplying cell count per well by cellular volume per cell (2.85 pl/cell). One independent study in duplicate was conducted to assess intracellular concentrations of the test articles for Seahorse studies.

HepG2 cells [5] = assay: as above; format: in vitro ADME; settings: Seahorse medium; for CIntracellular Fraction: cell lysate; for CHepatocyte: corrected for lysate and HepG2 cell volume
Protocol: as §2

human BSEP [6] = target: T1, human BSEP; parameters: method as in earlier work; settings: ref (7); read-out: BSEP Ki used in DILIsym simulations previously; cited from earlier work
[7] = tested on: mitochondrial electron transport chain; settings: intracellular concentrations not measured; cited from earlier work
simulated individuals = tested on: simulated individuals; parameters: method as in PMID 27655350; settings: 24 weeks, cited from earlier work; for Simulated ALT >3X ULN, frequency: 90/30 mg split daily dosing
[8] = 90/30 mg, cited from earlier work

SMILES: Cc1ccccc1C(=O)Nc1ccc(C(=O)N2CCCC(O)c3cc(Cl)ccc32)c(C)c1 (centres unmarked) [Tolvaptan, tolvaptan, reference compound]
- pIC50 (human BSEP [1]; read-out: BSEP inhibition constant (IC50)): 4.78
- inhibition of BSEP-mediated probe substrate accumulation (human BSEP [1]; vesicular transport inhibition assay): inhibited
- inhibition of NTCP-mediated probe substrate accumulation (human NTCP): inhibited
- inhibition of MRP3-mediated probe substrate accumulation (human MRP3): inhibited
- effect on HepG2 oxygen consumption rate (mitochondrial respiration) (HepG2 cells [2]): reduce the HepG2 OCR in a dose-dependent manner
- Coefficient for ETC inhibition (DILIsym parameter) [3]: 729 µM
- Kp at 5 µM ([4]; dose 5 µM): 6.44
- Kp at 10 µM ([4]; dose 10 µM): 3.44
- Kp at 25 µM ([4]; dose 25 µM): 5.97
- Kp at 40 µM ([4]; dose 40 µM): 5.7
- CIntracellular Fraction (HepG2 cells [5]; dose 0.1 µM): 0 µM
- CHepatocyte (HepG2 cells [5]; dose 0.1 µM): 0 µM
- CIntracellular Fraction (HepG2 cells [5]; dose 0.5 µM): 0 µM
- CHepatocyte (HepG2 cells [5]; dose 0.5 µM): 0 µM
- CIntracellular Fraction (HepG2 cells [5]; dose 1 µM): 0 µM
- CHepatocyte (HepG2 cells [5]; dose 1 µM): 0 µM
- CIntracellular Fraction (HepG2 cells [5]; dose 5 µM): 0.0156 µM
- CHepatocyte (HepG2 cells [5]; dose 5 µM): 32.20 µM
- CIntracellular Fraction (HepG2 cells [5]; dose 10 µM): 0.0162 µM
- CHepatocyte (HepG2 cells [5]; dose 10 µM): 34.40 µM
- CIntracellular Fraction (HepG2 cells [5]; dose 25 µM): 0.0629 µM
- CHepatocyte (HepG2 cells [5]; dose 25 µM): 149.2 µM
- CIntracellular Fraction (HepG2 cells [5]; dose 40 µM): 0.0937 µM
- CHepatocyte (HepG2 cells [5]; dose 40 µM): 227.9 µM
- pKi (human BSEP [6]): 4.50
- Coefficient for ETC inhibition (DILIsym parameter) used in previously published research [7]: 1.09 mM
- Simulated ALT >3X ULN, frequency (simulated individuals): 7.86%
- Simulated ALT >3X ULN, frequency (simulated individuals; listed as tolvaptan): 7.86%
- Simulated ALT >3X ULN (simulated individuals; 90/30 mg): 18/229
- Simulated Hy's Law Cases (simulated individuals; 90/30 mg): Yes
- Clinical Hy's Law Cases ([8]; ADPKD): Yes
- Clinical ALT >3X ULN, frequency ([8]; treated ADPKD patients): 4.4% and 5.6%
